As a reminder, the EC50 is the concentration needed to bring the measured effect to its halfway point. Higher therefore signals lower potency in that assay.

This assay has as its target GLP-1R (Homo sapiens, UniProt P43220). Briefly: GLP-1R Activation - cAMP Assay. In kind it is cell-based. To be noted: cAMP increase in CHO cells stably expressing GLP-1R; each compound run on one of the two cAMP assays (Assay 1 or Assay 2, not specified). The gist of the method: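 cAMP rise read by HTRF after 30 min agonist exposure (10-point titration, 37 °C) in HBSS/20 mM Hepes/0.1% BSA, following 1 h pre-incubation. Cells: stable GLP-1R CHO line, 1,000/well, seeded overnight. Sigmoidal fit of response vs log concentration gives EC50.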
(In general: cAMP levels reflect the balance of adenylyl cyclase and phosphodiesterase activity.)

Chain of GLP-1R (P43220 24-463): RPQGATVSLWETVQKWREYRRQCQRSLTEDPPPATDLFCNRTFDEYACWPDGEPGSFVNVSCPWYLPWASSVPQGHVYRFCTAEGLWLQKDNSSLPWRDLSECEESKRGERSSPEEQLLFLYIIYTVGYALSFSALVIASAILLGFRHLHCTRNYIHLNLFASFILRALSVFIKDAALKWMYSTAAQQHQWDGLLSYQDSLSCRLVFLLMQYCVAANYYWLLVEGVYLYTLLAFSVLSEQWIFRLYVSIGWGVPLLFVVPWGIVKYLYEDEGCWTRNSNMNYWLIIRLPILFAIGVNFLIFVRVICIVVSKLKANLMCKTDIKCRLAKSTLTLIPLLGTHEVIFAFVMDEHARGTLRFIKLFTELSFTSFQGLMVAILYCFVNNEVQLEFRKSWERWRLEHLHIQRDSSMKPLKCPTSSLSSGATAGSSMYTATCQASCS

Take `CC1(C)COC[C@H]1n1c(Cc2cc(F)c(-c3cccc(OCc4cc(F)c(F)cc4F)n3)cc2F)nc2ccc(C(=O)O)cc21` [Example 455, (S)-2-(2,5-difluoro-4-(6-((2,4,5-trifluorobenzyl)oxy)pyridin-2-yl)benzyl)-1-(4,4-dimethyltetrahydrofuran-3-yl)-1H-benzo[d]imidazole-6-carboxylic acid]: a half-maximal response (EC50) required 0.126 nM. This lies in the sub-nanomolar range.

As for `CC1(C)COC[C@H]1n1c(Cc2cc(F)c(-c3ncc(F)c(OCc4ccc(Cl)cc4F)n3)cc2F)nc2ccc(C(=O)O)cc21` [Example 410, (S)-2-(4-(4-((4-chloro-2-fluorobenzyl)oxy)-5-fluoropyrimidin-2-yl)-2,5-difluorobenzyl)-1-(4,4-dimethyltetrahydrofuran-3-yl)-1H-benzo[d]imidazole-6-carboxylic acid], the EC50 came out at 0.349 nM. This EC50 is about 2.8-fold higher than that of the compound before.

Compound `CC1(C)COC[C@H]1n1c(Cc2cc(F)c(-c3cccc(OCc4ccc(C#N)cc4Cl)n3)cc2F)nc2ccc(C(=O)O)cc21` [Example 460, (S)-2-(4-(6-((2-chloro-4-cyanobenzyl)oxy)pyridin-2-yl)-2,5-difluorobenzyl)-1-(4,4-dimethyltetrahydrofuran-3-yl)-1H-benzo[d]imidazole-6-carboxylic acid] yielded an EC50 of 0.096 nM.

The compound `COc1cc(Cl)ncc1COc1cccc(-c2cc(F)c(Cc3nc4c(F)cc(C(=O)O)cc4n3[C@@H]3COCC3(C)C)cc2F)n1` [Example 288, (S)-2-(4-(6-((6-chloro-4-methoxypyridin-3-yl)methoxy)pyridin-2-yl)-2,5-difluorobenzyl)-1-(4,4-dimethyltetrahydrofuran-3-yl)-4-fluoro-1H-benzo[d]imidazole-6-carboxylic acid] yielded an EC50 of 0.041 nM. This EC50 lies about 2.3-fold lower than the previous one.

On to `CC1(C)COC[C@H]1n1c(Cc2cc(F)c(-c3cccc(OCc4c(F)cc(C#N)cc4F)n3)cc2F)nc2c(F)cc(C(=O)O)cc21` [Example 498, (S)-2-(4-(6-((4-cyano-2,6-difluorobenzyl)oxy)pyridin-2-yl)-2,5-difluorobenzyl)-1-(4,4-dimethyltetrahydrofuran-3-yl)-4-fluoro-1H-benzo[d]imidazole-6-carboxylic acid], for which it took 0.508 nM to reach a half-maximal effect (EC50). Against the preceding compound, the EC50 is about 12-fold higher.

`C[C@@H]1COC[C@@H]1n1c(Cc2cc(F)c(-c3cccc(OCc4ccc(C#N)cc4F)n3)cc2F)nc2ccc(C(=O)O)cc21` (racemic) [Example 505, 2-(4-(6-((4-cyano-2-fluorobenzyl)oxy)pyridin-2-yl)-2,5-difluorobenzyl)-1-((3R,4S)-4-methyltetrahydrofuran-3-yl)-1H-benzo[d]imidazole-6-carboxylic acid] had a concentration giving a half-maximal response (EC50) of 0.043 nM.

Regarding `CC1(C)COCC1n1c(Cc2cc(F)c(-c3cccc(OCc4c(F)cc(Cl)cc4F)n3)cc2F)nc2c(F)cc(C(=O)O)cc21` (centres unmarked) [Example 499, 2-(4-(6-((4-chloro-2,6-difluorobenzyl)oxy)pyridin-2-yl)-2,5-difluorobenzyl)-1-(4,4-dimethyltetrahydrofuran-3-yl)-4-fluoro-1H-benzo[d]imidazole-6-carboxylic acid], the EC50 was determined as 0.508 nM.

The compound `CC1(C)COC[C@H]1n1c(Cc2c(F)cc(-c3ccc(F)c(OCc4ccc(Cl)cc4F)n3)c(F)c2F)nc2ccc(C(=O)O)cc21` [Example 335, (S)-2-(4-(6-((4-chloro-2-fluorobenzyl)oxy)-5-fluoropyridin-2-yl)-2,3,6-trifluorobenzyl)-1-(4,4-dimethyltetrahydrofuran-3-yl)-1H-benzo[d]imidazole-6-carboxylic acid] registered an EC50 of 0.306 nM.

In the case of `N#Cc1ccc(COc2cccc(-c3cc(F)c(Cc4nc5ccc(C(=O)O)cc5n4[C@H]4COC[C@H]4CF)cc3F)n2)c(F)c1` [Example 172], the EC50 is 0.129 nM.

With `CS(=O)(=O)N1Cc2ccc(COc3cccc(-c4cc(F)c(Cc5nc6c(F)cc(C(=O)O)cc6n5C[C@@H]5CCO5)cc4F)n3)cc2C1` [Example 517, (S)-2-(2,5-difluoro-4-(6-((2-(methylsulfonyl)isoindolin-5-yl)methoxy)pyridin-2-yl)benzyl)-4-fluoro-1-(oxetan-2-ylmethyl)-1H-benzo[d]imidazole-6-carboxylic acid], the EC50 is 0.024 nM. Against the preceding compound, the EC50 is about 5.4-fold lower.

On to `N#Cc1ccc(COc2cccc(-c3cc(F)c(Cc4nc5ccc(C(=O)O)cc5n4CC4(C5CC5)CCCO4)cc3F)n2)c(F)c1` (centres unmarked) [Example 273, 2-(4-(6-((4-cyano-2-fluorobenzyl)oxy)pyridin-2-yl)-2,5-difluorobenzyl)-1-((2-cyclopropyltetrahydrofuran-2-yl)methyl)-1H-benzo[d]imidazole-6-carboxylic acid], for which the EC50 worked out at 0.942 nM.

For the compound `COCCOCCOCCn1cc(-c2ccc(COc3cccc(-c4cc(F)c(Cc5nc6ccc(C(=O)O)cc6n5CCOC)cc4F)n3)c(F)c2)cn1` [Example 98], the EC50 was 1.43 nM.

As for `COCCn1c(Cc2c(F)cc(-c3cccc(OCc4ccc(C#N)cc4F)n3)c3nccn23)nc2ccc(C(=O)O)cc21` [Example 50], a half-maximal effect (EC50) was put at 5.24 nM.

`CO[C@@]1(C)COC[C@H]1n1c(Cc2cc(F)c(-c3cccc(OCc4ccc(C#N)cc4F)n3)cc2F)nc2ccc(C(=O)O)cc21` (single isomer, unassigned) [Example 311A] returned an EC50 of 0.064 nM.

Regarding `CC1(C)COC[C@H]1n1c(Cc2cc(F)c(-c3ccnc(OCc4ccc(C(F)(F)F)cc4F)n3)cc2F)nc2ccc(C(=O)O)cc21` [Example 285, (S)-2-(2,5-difluoro-4-(2-((2-fluoro-4-(trifluoromethyl)benzyl)oxy)pyrimidin-4-yl)benzyl)-1-(4,4-dimethyltetrahydrofuran-3-yl)-1H-benzo[d]imidazole-6-carboxylic acid], it took 0.096 nM to reach a half-maximal effect (EC50).

`CC1(C)COCC1n1c(Cc2cc(F)c(-c3ccc(F)c(OCc4ccc(C#N)cc4F)n3)cc2Cl)nc2ccc(C(=O)O)cc21` (centres unmarked) [Example 345, 2-(2-chloro-4-(6-((4-cyano-2-fluorobenzyl)oxy)-5-fluoropyridin-2-yl)-5-fluorobenzyl)-1-(4,4-dimethyltetrahydrofuran-3-yl)-1H-benzo[d]imidazole-6-carboxylic acid]: the EC50 was 0.197 nM.

In turn, `CO[C@H](C)Cn1c(Cc2cc(F)c(-c3cccc(OCc4ccc(C#N)cc4F)n3)cc2F)nc2c(F)cc(C(=O)O)cc21` [Example 355, (R)-2-(4-(6-((4-cyano-2-fluorobenzyl)oxy)pyridin-2-yl)-2,5-difluorobenzyl)-4-fluoro-1-(2-methoxypropyl)-1H-benzo[d]imidazole-6-carboxylic acid] yielded an EC50 of 1.21 nM.

The compound `COC[C@H]1COC[C@H]1n1c(Cc2cc(F)c(-c3cccc(OCc4ccc(C(F)(F)F)cc4)n3)cc2F)nc2ccc(C(=O)O)cc21` [Example 556, 2-(2,5-difluoro-4-(6-((4-(trifluoromethyl)benzyl)oxy)pyridin-2-yl)benzyl)-1-((3S,4S)-4-(methoxymethyl)tetrahydrofuran-3-yl)-1H-benzo[d]imidazole-6-carboxylic acid] had an EC50 of 0.262 nM.

Compound `CC1(C)COC[C@H]1n1c(Cc2cc(F)c(-c3cccc(OCc4cc(F)c(F)cc4Cl)n3)cc2F)nc2ccc(C(=O)O)cc21` [Example 454, (S)-2-(4-(6-((2-chloro-4,5-difluorobenzyl)oxy)pyridin-2-yl)-2,5-difluorobenzyl)-1-(4,4-dimethyltetrahydrofuran-3-yl)-1H-benzo[d]imidazole-6-carboxylic acid] gave an EC50 of 0.477 nM.

In turn, `COCCn1c(Cc2cc(C)c(-c3ccc(F)c(OCc4ccc(C#N)cc4F)n3)cc2Cl)nc2c(F)cc(C(=O)O)cc21` [Example 225, 2-(2-chloro-4-(6-((4-cyano-2-fluorobenzyl)oxy)-5-fluoropyridin-2-yl)-5-methylbenzyl)-4-fluoro-1-(2-methoxyethyl)-1H-benzo[d]imidazole-6-carboxylic acid] came in with an EC50 of 7.14 nM.

Take `N#Cc1ccc(COc2cccc(-c3cc(F)c(Cc4nc5ccc(C(=O)O)cc5n4[C@@H]4COC[C@H]4F)cc3F)n2)c(F)c1` (racemic) [Example 77, 2-(4-(6-((4-cyano-2-fluorobenzyl)oxy)pyridin-2-yl)-2,5-difluorobenzyl)-1-((3R,4S)-4-fluorotetrahydrofuran-3-yl)-1H-benzo[d]imidazole-6-carboxylic Acid]: the EC50 came out at 1.91 nM. This EC50 lies about 3.7-fold lower than the previous one.

For `CC1(C)COC[C@H]1n1c(Cc2c(F)cc(-c3ccc(F)c(OCc4ccc(F)cc4)n3)c(F)c2F)nc2ccc(C(=O)O)cc21` [Example 558, (S)-1-(4,4-dimethyltetrahydrofuran-3-yl)-2-(2,3,6-trifluoro-4-(5-fluoro-6-((4-fluorobenzyl)oxy)pyridin-2-yl)benzyl)-1H-benzo[d]imidazole-6-carboxylic acid], the response was half-maximal at 0.132 nM (EC50).

As to `CC1(C)COC[C@H]1n1c(Cc2cc(F)c(-c3cccc(OCc4ccc(C(F)(F)F)nc4)n3)cc2F)nc2ccc(C(=O)O)cc21` [Example 425, (S)-2-(2,5-difluoro-4-(6-((6-(trifluoromethyl)pyridin-3-yl)methoxy)pyridin-2-yl)benzyl)-1-(4,4-dimethyltetrahydrofuran-3-yl)-1H-benzo[d]imidazole-6-carboxylic acid], the EC50 was 0.494 nM. Against the preceding compound, the EC50 is about 3.7-fold higher.

As for `CO[C@@H]1COCC1n1c(Cc2cc(F)c(-c3cccc(OCc4ccc(C#N)cc4F)n3)cc2F)nc2c(F)cc(C(=O)O)cc21` (single isomer, unassigned) [Example 239], the EC50 is 0.04 nM. Against the preceding compound, the EC50 is about 12-fold lower.

`CC1(C)COC[C@H]1n1c(Cc2c(F)cc(-c3cccc(OCc4ccc(C#N)cc4)n3)c(F)c2F)nc2c(F)cc(C(=O)O)cc21` [Example 244, (S)-2-(4-(6-((4-cyanobenzyl)oxy)pyridin-2-yl)-2,3,6-trifluorobenzyl)-1-(4,4-dimethyltetrahydrofuran-3-yl)-4-fluoro-1H-benzo[d]imidazole-6-carboxylic acid] came in with an EC50 of 0.015 nM.

As for `COCCn1c(Cc2c(F)cc(-c3cccc(OCc4ccc(C#N)cc4F)n3)c3ncnn23)nc2ccc(C(=O)O)cc21` [Example 53], the EC50 is 5.11 nM.

Values taken from US12570642B2, “GLP-IR modulating compounds” (Gilead Sciences, Inc., priority 2021, dated 2026).
